Measured values reported in patent publication US11578058B2, “Heterocyclic compounds for inhibiting TYK2 activities” (Beijing InnoCare Pharma Tech Co., Ltd., priority 2020, dated 2023).
pIC50: −log10 of the molar value.

Assays:
[1] = system: IL-12-induced IFN-γ secretion in NK92 cells; test: Inhibition of IL-12-induced IFN-γ secretion in NK92 cells (ELISA); assay type: cell-based; settings: Homo sapiens, IL-12, 24 hours, read-out: IC50 (NK92_IL12/IFN-γ)
Experimental: The effect of the compounds of the present invention on IFN-γ secretion induced by TYK2 in NK92 cells is evaluated by an enzyme-linked immunosorbent assay (ELISA) (Table 2).
IL-12 receptor is mainly expressed in activated T-cells, NK cells (NK92 is a NK cell line), DC cells, and B-cells. When binding to IL-12, it activates JAK2/TYK2 signal transduction pathway within NK cells and T lymphocytes, thereby inducing secretion of IFN-γ.
The experimental method is generally described below:
The 96-well plate is then incubated overnight in a 37° C./5% CO2 incubator.
The plate is centrifuged at 800 rpm for 10 minutes at room temperature and 50 μL of the supernatant from each well is transferred to another 96-well plate (Sigma, Cat No. CLS3695) coated with anti-IFN-γ antibody. The amount of IFN-γ secretion is detected following the instruction from the Human IFN-gamma DuoSet ELISA kit (R & D Systems, Cat No. DY285B). […] The percentage of inhibition on IL-12 induced IFN-γ secretion in NK-92 cells by the test compound is calculated using the following formula: […]
The IC50 value of the test compound is calculated from 8 concentration points using the XLfit software (ID Business Solutions Ltd., UK) by the following formula: […]
Where Y is the percentage of inhibition, X is the logarithm of the concentration of the test compound, Bottom is the bottom plateau value of the S-shaped curve, Top is the top plateau value of the S-shaped curve, and slope factor is the slope coefficient of the curve.

[2] = In vivo rat PK determination; design: species or system Sprague Dawley rats; settings: for F: PO (5 mpk) vs IV (1 mpk); for AUClast / Cmax: PO (5 mpk), n = 3
Experimental: The pharmacokinetics of Compound 3 of the present invention and the reference compound BMS-986165 were evaluated. Compound 3 has an OCD3 on a benzene ring, whereas the reference compound has an CD3 on an amide moiety. Methyl group is typically labile in vivo, subject to hydrolysis by amidase in the case of methylamide and to oxidative demethylation by CYPs in the case of methoxy and methyltriazole. Substituting methyl with tri-deuterated methyl improves the bioavailability and in vivo exposure of the compound and provides a better efficacy of the compound under the same dose.
Compound 3 and the reference compound in a 0.5 mg/mL solution containing 5% N,N-dimethylacetamide+20% solutol+75% saline were orally administered to three male Sprague Dawley rats at a dose of 5 mg/kg. Blood samples were collected at 0.25, 0.5, 1, 2, 4, 8 and 24 hours after administration. The concentrations of the compound in the plasma were quantified by LC-MS/MS using an API-4500 mass spectrometer. The limit of quantification (LOQ) of analysis was 1 ng/mL. The pharmacokinetic (PK) parameters were calculated by the non-compartmental method using WinNonlin and are present in Table 3.

[3] = system: anti-CD40 antibody-induced colitis; test: Anti-CD40 antibody-induced colitis animal model; assay type: in vivo, CB17-Scid mice; settings: for Spleen weight, Mean: Day 8; for protection from colitis (body weight loss and spleen enlargement) versus vehicle group: Compound 3 at 1.5, 5 and 15 mg/kg, reference compound at 5 mg/kg, oral twice daily; for body weight loss after treatment in anti-CD40 colitis (IBD) model: mice
Experimental: The female CB17-Scid mice (8-10 weeks old, 18-20 g) from Beijing Vital River laboratory were randomly divided into 5 groups (n=8 per group). On Day 0, colitis was induced in mice each with a single intraperitoneal injection of 100 μg of FGK4.5 anti-CD40 mAb (BioXCell, Cat. No. EB0016-2) in PBS. […] On a daily basis, mice were weighed and monitored for signs of colitis including body weight loss and the accompanying loose stools and diarrhea. On Day 8, all animals were euthanized. Spleen tissues were collected and weighed.

[4] = In vivo rat PK determination; design: species or system Sprague Dawley rats; settings: IV (1 mpk); for CL / Vss: n = 3; for T1/2: n = 3 (header span assumed)

Compound [2H]C([2H])([2H])NC(=O)c1nnc(NC(=O)C2CC2)cc1Nc1cccc(-c2ncn(C)n2)c1OC [BMS-986165, reference compound] has a pIC50 [1] of 7.77, an F [2] of 46% and an AUClast [2] of 2828 ng·h/mL. The Cmax [2] was 632 ng/mL, the “Spleen weight, Mean” value ([3]; 5 mg/kg oral twice daily) was 0.036 g and the “protection from colitis (body weight loss and spleen enlargement) versus vehicle group” value [3] was “significantly protected mice from colitis”. It also gave a CL [4] of 14 mL/min/kg, a Vss [4] of 1.5 L/kg and a T1/2 [4] of 3.3 h.

For [2H]C([2H])([2H])NC(=O)c1nnc(NC(=O)C2CC2)cc1Nc1cccc(-c2ncn(C([2H])([2H])[2H])n2)c1OC [Compound 1, 6-(cyclopropanecarboxamido)-4-((2-methoxy-3-(1-(methyl-d3)-1H-1,2,4-triazol-3-yl)phenyl)amino)-N-(methyl-d3)pyridazine-3-carboxamide], the pIC50 [1] was 7.80.

With [2H]C([2H])([2H])n1cnc(-c2cccc(Nc3cc(NC(=O)C4CC4)nnc3C(=O)NC)c2OC)n1 [Compound 2, 6-(cyclopropanecarboxamido)-4-((2-methoxy-3-(1-(methyl-d3)-1H-1,2,4-triazol-3-yl)phenyl)amino)-N-methylpyridazine-3-carboxamide] the pIC50 [1] was 7.89 and the “body weight loss after treatment in anti-CD40 colitis (IBD) model” value (“body weight loss after treatment” for short) [3] was “no significant body weight loss”.

Compound [2H]C([2H])([2H])Oc1c(Nc2cc(NC(=O)C3CC3)nnc2C(=O)NC)cccc1-c1ncn(C)n1 [Compound 3, 6-(cyclopropanecarboxamido)-4-((2-(methoxy-d3)-3-(1-methyl-1H-1,2,4-triazol-3-yl)phenyl)amino)-N-methylpyridazine-3-carboxamide] has a pIC50 [1] of 7.85, an F [2] of 92% and an AUClast [2] of 6560 ng·h/mL. The Cmax [2] was 971 ng/mL, the “in vivo exposure compared with reference compound” value ([2]; oral 5 mg/kg) was “better in vivo exposures than the reference compound” and the “Spleen weight, Mean” value ([3]; 1.5 mg/kg oral twice daily) was 0.060 g. The “Spleen weight, Mean” value ([3]; 5 mg/kg oral twice daily) was 0.037 g, the “Spleen weight, Mean” value ([3]; 15 mg/kg oral twice daily) was 0.025 g and the “protection from colitis (body weight loss and spleen enlargement) versus vehicle group” value [3] was “significantly protected mice from colitis”. The “body weight loss after treatment” value [3] was “no significant body weight loss”, the CL [4] was 12 mL/min/kg and the Vss [4] was 1.1 L/kg. The T1/2 [4] was 4.3 h.

[2H]C([2H])([2H])NC(=O)c1nnc(NC(=O)C2CC2)cc1Nc1cccc(-c2ncn(C)n2)c1OC([2H])([2H])[2H] [Compound 4, 6-(cyclopropanecarboxamido)-4-((2-(methoxy-d3)-3-(1-methyl-1H-1,2,4-triazol-3-yl)phenyl)amino)-N-(methyl-d3)pyridazine-3-carboxamide] gave a pIC50 [1] of 7.96.

For [2H]C([2H])([2H])NC(=O)c1nnc(NC(=O)[C@@H]2CC2(F)F)cc1Nc1cccc(-c2ncn(C)n2)c1OC [Compound 5, (S)-6-(2,2-difluorocyclopropane-1-carboxamido)-4-((2-methoxy-3-(1-methyl-1H-1,2,4-triazol-3-yl)phenyl)amino)-N-(methyl-d3)pyridazine-3-carboxamide], the pIC50 [1] was 7.28 and the “body weight loss after treatment” value [3] was “no significant body weight loss”.

With CNC(=O)c1nnc(NC(=O)[C@@H]2CC2(F)F)cc1Nc1cccc(-c2ncn(C)n2)c1OC [Compound 6, (S)-6-(2,2-difluorocyclopropane-1-carboxamido)-4-((2-methoxy-3-(1-methyl-1H-1,2,4-triazol-3-yl)phenyl)amino)-N-methylpyridazine-3-carboxamide] the pIC50 [1] was 7.33.

For [2H]C([2H])([2H])NC(=O)c1nnc(NC(=O)[C@H]2CC2(F)F)cc1Nc1cccc(-c2ncn(C)n2)c1OC [Compound 7, (R)-6-(2,2-difluorocyclopropane-1-carboxamido)-4-((2-methoxy-3-(1-methyl-1H-1,2,4-triazol-3-yl)phenyl)amino)-N-(methyl-d3)pyridazine-3-carboxamide], the pIC50 [1] was 7.13.
